For assay [1], the target named is T1, HCV NS3/4A protease complex, BMS strain (UniProt P27958, species not given/STRAIN_BMS).
T1 construct: said of H77 and J4L6S, not expressly of BMS; fused on or other part: A three-lysine solubilising tail at the NS4A C-terminus and purification on Ni-NTA are described for the H77 and J4L6S constructs
Kind of assay: FRET peptide assay to monitor HCV NS3/4A proteolytic activity (BMS strain). The class given is biochemical, HCV genotype 1a. The following applies: NS3/4A BMS strain; read-out: Activity Range (IC50). The text has this: HCV NS3 protease complexes, derived from the BMS strain, H77 strain or J4L6S strain, were generated, as described below. These purified recombinant proteins were generated for use in a homogeneous assay (see below) to provide an indication of how effective compounds of the present disclosure would be in inhibiting HCV NS3 proteolytic activity.
Serum from an HCV-infected patient was obtained from Dr. T. Wright, San Francisco Hospital. An engineered full-length cDNA (compliment deoxyribonucleic acid) template of the HCV genome (BMS strain) was constructed from DNA fragments obtained by reverse transcription-PCR (RT-PCR) of serum RNA (ribonucleic acid) and using primers selected on the basis of homology between other genotype 1a strains. From the determination of the entire genome sequence, a genotype 1a was assigned to the HCV isolate according to the classification of Simmonds et al. (See P Simmonds, K A Rose, S Graham, S W Chan, F McOmish, B C Dow, E A Follett, P L Yap and H Marsden, J. Clin. Microbiol., 31(6), 1493-1503 (1993)). […] The infectious clones, H77 (1a genotype) and J4L6S (1b genotype) were obtained from R. Purcell (NIH) and the sequences are published in Genbank (AAB67036, see Yanagi, M., Purcell, R. H., Emerson, S. U. and Bukh, J. Proc. Natl. Acad. Sci. U.S.A. 94(16), 8738-8743 (1997); AF054247, see Yanagi, M., St Claire, M., Shapiro, M., Emerson, S. U., Purcell, R. H. and Bukh, J, Virology 244 (1), 161-172. (1998)).
NS3/4A protease complex-containing fractions were pooled and loaded on a desalting column Superdex-S200 pre-equilibrated with buffer D (25 mM HEPES, pH 7.5, 20% glycerol, 300 mM NaCl, 0.2% Triton X-100, 10 mM βME). Sample was loaded at a flow rate of 1 mL/min. NS3/4A protease complex-containing fractions were pooled and concentrated to approximately 0.5 mg/ml. The purity of the NS3/4A protease complexes, derived from the BMS, H77 and J4L6S strains, were judged to be greater than 90% by SDS-PAGE and mass spectrometry analyses. The enzyme was stored at −80° C., thawed on ice and diluted prior to use in assay buffer.
The purpose of this in vitro assay was to measure the inhibition of HCV NS3 protease complexes, derived from the BMS strain, H77 strain or J4L6S strain, as described above, by compounds of the present disclosure. This assay provides an indication of how effective compounds of the present disclosure would be in inhibiting HCV NS3 proteolytic activity.
In order to monitor HCV NS3/4A protease activity, an NS3/4A peptide substrate was used. The substrate was RET S1 (Resonance Energy Transfer Depsipeptide Substrate; AnaSpec, Inc. cat #22991) (FRET peptide), described by Taliani et al. in Anal. Biochem. 240(2):60-67 (1996). The sequence of this peptide is loosely based on the NS4A/NS4B natural cleavage site for the HCV NS3 protease except there is an ester linkage rather than an amide bond at the cleavage site. The peptide also contains a fluorescence donor, EDANS, near one end of the peptide and an acceptor, DABCYL, near the other end. The fluorescence of the peptide is quenched by […] resonance energy transfer (RET) between the donor and the acceptor, but as the NS3 protease cleaves the peptide the products are released from RET quenching and the fluorescence of the donor becomes apparent.
The peptide substrate was incubated with one of the three recombinant NS3/4A protease complexes, in the absence or presence of a compound of the present disclosure. The inhibitory effects of a compound were determined by monitoring the formation of fluorescent reaction product in real time using a Cytofluor Series 4000.
Assay buffer: 50 mM HEPES, pH 7.5; 0.15M NaCl; 0.1% Triton; 15% Glycerol; 10 mM βME. Substrate: 2 μM final concentration (from a 2 mM stock solution in DMSO stored at −20° C.). HCV NS3/4A protease type 1a (1b), 2-3 nM final concentration (from a 5 μM stock solution in 25 mM HEPES, pH 7.5, 20% glycerol, 300 mM NaCl, 0.2% Triton-X100, 10 mM βME). […]

Assay [2] concerns HCV replicon in HUH-7 cells. Kind of assay: HCV replicon FRET assay. The assay is classed as cell-based, HCV strain 1b. The conditions noted are these: Hepatitis C virus, Huh-7; HCV replicon cell assay; read-out: Activity Range (EC50). The text has this: An HCV replicon whole cell system was established as described by Lohmann V, Korner F, Koch J, Herian U, Theilmann L, Bartenschlager R., Science 285(5424):110-3 (1999). This system enabled us to evaluate the effects of our HCV Protease compounds on HCV RNA replication. Briefly, using the HCV strain 1b sequence described in the Lohmann paper (Assession number: AJ238799), an HCV cDNA was synthesized by Operon Technologies, Inc. (Alameda, Calif.), and the full-length replicon was then assembled in plasmid pGem9zf(+) (Promega, Madison, Wis.) using standard molecular biology techniques. The replicon consists of (i) the HCV 5′ UTR fused to the first 12 amino acids of the capsid protein, (ii) the neomycin phosphotransferase gene (neo), (iii) the IRES from encephalomyocarditis virus (EMCV), and (iv) HCV NS3 to NS5B genes and the HCV 3′ UTR. Plasmid DNAs were linearized with ScaI and RNA transcripts were synthesized in vitro using the T7 MegaScript transcription kit (Ambion, Austin, Tex.) according to manufacturer's directions. In vitro transcripts of the cDNA were transfected into the human hepatoma cell line, HUH-7. […] Resulting cell lines were characterized for positive and negative strand RNA production and protein production over time.
The HCV replicon FRET assay was developed to monitor the inhibitory effects of compounds described in the disclosure on HCV viral replication. HUH-7 cells, constitutively expressing the HCV replicon, were grown in Dulbecco's Modified Eagle Media (DMEM) (Gibco-BRL) containing 10% Fetal calf serum (FCS) (Sigma) and 1 mg/ml G418 (Gibco-BRL). Cells were seeded the night before (1.5×10^4 cells/well) in 96-well tissue-culture sterile plates. Compound and no compound controls were prepared in DMEM containing 4% FCS, 1:100 Penicillin/Streptomysin (Gibco-BRL), 1:100 L-glutamine and 5% DMSO in the dilution plate (0.5% DMSO final concentration in the assay). Compound/DMSO mixes were added to the cells and incubated for 4 days at 37° C. After 4 days, cells were first assessed for cytotoxicity using alamar Blue (Trek Diagnotstic Systems) for a CC50 reading. The toxicity of compound (CC50) was determined by adding 1/10th volume of alamar Blue to the media incubating the cells. After 4 h, the fluorescence signal from each well was read, with an excitation wavelength at 530 nm and an emission wavelength of 580 nm, using the Cytofluor Series 4000 (Perspective Biosystems). Plates were then rinsed thoroughly with Phosphate-Buffered Saline (PBS) (3 times 150 μl). The cells were lysed with 25 μl of a lysis assay reagent containing an HCV protease substrate (5× cell Luciferase cell culture lysis reagent (Promega #E153A) diluted to 1× with distilled water, NaCl added to 150 mM final, the FRET peptide substrate (as described for the enzyme assay above) diluted to 10 μM final from a 2 mM stock in 100% DMSO. […]. The plate was then placed into the Cytofluor 4000 instrument which had been set to 340 nm excitation/490 nm emission, automatic mode for 21 cycles and the plate read in a kinetic mode. EC50 determinations were carried out as described for the IC50 determinations.

A word on the IC50: it is the midpoint of a concentration-inhibition curve. As usually defined, the EC50 is the concentration that produces a half-maximal response.

T1 sequence (P27958 1027-1657, change not shown, one chain of several): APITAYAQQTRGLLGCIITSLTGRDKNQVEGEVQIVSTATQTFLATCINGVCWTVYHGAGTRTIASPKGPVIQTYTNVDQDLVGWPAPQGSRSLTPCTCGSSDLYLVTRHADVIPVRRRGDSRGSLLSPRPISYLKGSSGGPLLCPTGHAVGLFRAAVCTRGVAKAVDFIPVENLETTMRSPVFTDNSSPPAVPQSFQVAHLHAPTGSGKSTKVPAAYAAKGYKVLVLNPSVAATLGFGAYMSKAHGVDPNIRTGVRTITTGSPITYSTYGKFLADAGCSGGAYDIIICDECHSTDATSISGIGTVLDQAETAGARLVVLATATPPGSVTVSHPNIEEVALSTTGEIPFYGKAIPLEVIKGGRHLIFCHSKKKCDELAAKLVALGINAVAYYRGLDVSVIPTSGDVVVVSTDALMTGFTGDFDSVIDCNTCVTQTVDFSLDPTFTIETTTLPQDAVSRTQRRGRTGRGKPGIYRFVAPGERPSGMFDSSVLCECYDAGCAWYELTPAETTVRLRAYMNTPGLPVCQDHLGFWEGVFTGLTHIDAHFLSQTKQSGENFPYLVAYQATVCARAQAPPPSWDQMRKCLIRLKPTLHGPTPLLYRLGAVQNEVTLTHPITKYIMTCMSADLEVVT

With `C=C[C@@H]1C[C@]1(NC(=O)[C@@H]1C[C@@H](c2ccccc2)CN1C(=O)[C@@H](NC(=O)OC(C)(C)C)C(C)(C)C)C(=O)NS(=O)(=O)C1CC1` [Compound 1], the 50% inhibitory concentration (IC50) in assay [1] lay in the range of 100 to 1000 nM. Further, the EC50 in assay [2] lay within 1000 to 10000 nM.
For `C=C[C@@H]1C[C@]1(NC(=O)[C@@H]1C[C@@H](Cc2ccccc2)CN1C(=O)[C@@H](NC(=O)OC(C)(C)C)C(C)(C)C)C(=O)NS(=O)(=O)C1CC1` [Compound 2], in assay [1], the IC50 was greater than 1000 nM. Also, in assay [2], the concentration for a half-maximal effect (EC50) is greater than 10000 nM.
For `C=C[C@@H]1C[C@]1(NC(=O)[C@@H]1C[C@@](O)(c2ccccc2)CN1C(=O)[C@@H](NC(=O)OC(C)(C)C)C(C)(C)C)C(=O)NS(=O)(=O)C1CC1` [Compound 4], the half-inhibitory concentration (IC50) in assay [1] was in the range of 100 to 1000 nM. In addition, the EC50 in assay [2] fell in the range of 1000 to 10000 nM.
Turning to `C=C[C@@H]1C[C@]1(NC(=O)[C@@H]1C[C@@](O)(c2ccc3ccccc3c2)CN1C(=O)[C@@H](NC(=O)OC(C)(C)C)C(C)(C)C)C(=O)NS(=O)(=O)C1CC1` [Compound 5], the 50% inhibitory concentration (IC50) in assay [1] was 1 to 100 nM. Also, the concentration giving a half-maximal response (EC50) in assay [2] is 10 to 1000 nM.
`C=C[C@@H]1C[C@]1(NC(=O)[C@@H]1C[C@@](O)(c2ccc(F)cc2)CN1C(=O)[C@@H](NC(=O)OC(C)(C)C)C(C)(C)C)C(=O)NS(=O)(=O)C1CC1` [Compound 6]: the half-inhibitory concentration (IC50) in assay [1] lay in the range of 100 to 1000 nM. The EC50 in assay [2] lay within 1000 to 10000 nM.
Consider `C=C[C@@H]1C[C@]1(NC(=O)[C@@H]1C[C@@](O)(c2ccc(OC)cc2)CN1C(=O)[C@@H](NC(=O)OC(C)(C)C)C(C)(C)C)C(=O)NS(=O)(=O)C1CC1` [Compound 7], for which, in assay [1], the concentration for half-maximal inhibition (IC50) lay within 100 to 1000 nM. Further, the concentration giving a half-maximal response (EC50) in assay [2] is 1000 to 10000 nM.
On to `C=C[C@@H]1C[C@]1(NC(=O)[C@@H]1C[C@@](O)(c2cccc(-c3ccc(OC)cc3)c2)CN1C(=O)[C@@H](NC(=O)OC(C)(C)C)C(C)(C)C)C(=O)NS(=O)(=O)C1CC1` [Compound 8], for which the IC50 in assay [1] lay within 100 to 1000 nM. Moreover, in assay [2], the EC50 was 1000 to 10000 nM.
As to `C=CC[C@]1(O)C[C@@H](C(=O)N[C@]2(C(=O)NS(=O)(=O)C3CC3)C[C@H]2C=C)N(C(=O)[C@@H](NC(=O)OC(C)(C)C)C(C)(C)C)C1` [Compound 9], in assay [1], the IC50 is greater than 1000 nM. Further, the concentration giving a half-maximal response (EC50) in assay [2] is greater than 10000 nM.
Consider `C=C[C@@H]1C[C@]1(NC(=O)[C@@H]1C[C@@](O)(c2cccc(F)c2)CN1C(=O)[C@@H](NC(=O)OC(C)(C)C)C(C)(C)C)C(=O)NS(=O)(=O)C1CC1` [Compound 10], for which the IC50 in assay [1] lay within 1 to 100 nM. For the same molecule, the EC50 in assay [2] is 1000 to 10000 nM.
For `C=C[C@@H]1C[C@]1(NC(=O)[C@@H]1C[C@@](O)(c2cccc(OC)c2)CN1C(=O)[C@@H](NC(=O)OC(C)(C)C)C(C)(C)C)C(=O)NS(=O)(=O)C1CC1` [Compound 11], the half-inhibitory concentration (IC50) in assay [1] lay within 1 to 100 nM. In addition, in assay [2], the EC50 was in the range of 1000 to 10000 nM.
Consider `C=C[C@@H]1C[C@]1(NC(=O)[C@@H]1C[C@@](O)(c2cccc(Cl)c2)CN1C(=O)[C@@H](NC(=O)OC(C)(C)C)C(C)(C)C)C(=O)NS(=O)(=O)C1CC1` [Compound 12], for which the 50% inhibitory concentration (IC50) in assay [1] is 1 to 100 nM. The EC50 in assay [2] lay in the range of 1000 to 10000 nM.
For `C=C[C@@H]1C[C@]1(NC(=O)[C@@H]1C[C@@](O)(c2cccc(C)c2)CN1C(=O)[C@@H](NC(=O)OC(C)(C)C)C(C)(C)C)C(=O)NS(=O)(=O)C1CC1` [Compound 13], in that order: 1 to 100 nM and 1000 to 10000 nM.
In the case of `C=C[C@@H]1C[C@]1(NC(=O)[C@@H]1C[C@@](O)(c2cccc(C(C)C)c2)CN1C(=O)[C@@H](NC(=O)OC(C)(C)C)C(C)(C)C)C(=O)NS(=O)(=O)C1CC1` [Compound 14], in assay [1], the IC50 lay within 100 to 1000 nM. Besides, in assay [2], the concentration giving a half-maximal response (EC50) was 1000 to 10000 nM.
For `C=C[C@@H]1C[C@]1(NC(=O)[C@@H]1C[C@@](O)(c2cccc(OC(C)C)c2)CN1C(=O)[C@@H](NC(=O)OC(C)(C)C)C(C)(C)C)C(=O)NS(=O)(=O)C1CC1` [Compound 15], in that order: 100 to 1000 nM and 1000 to 10000 nM.
Consider `C=C[C@@H]1C[C@]1(NC(=O)[C@@H]1C[C@@](O)(c2cccc(N(C)C)c2)CN1C(=O)[C@@H](NC(=O)OC(C)(C)C)C(C)(C)C)C(=O)NS(=O)(=O)C1CC1` [Compound 16], for which the IC50 in assay [1] was 100 to 1000 nM. Also, in assay [2], the EC50 is greater than 10000 nM.
For `C=C[C@@H]1C[C@]1(NC(=O)[C@@H]1C[C@@](O)(c2cccc(CN3CCCC3)c2)CN1C(=O)[C@@H](NC(=O)OC(C)(C)C)C(C)(C)C)C(=O)NS(=O)(=O)C1CC1` [Compound 17], in that order: 100 to 1000 nM and greater than 10000 nM.
For `C=C[C@@H]1C[C@]1(NC(=O)[C@@H]1C[C@@](O)(c2cccc(CN3CCCCC3)c2)CN1C(=O)[C@@H](NC(=O)OC(C)(C)C)C(C)(C)C)C(=O)NS(=O)(=O)C1CC1` [Compound 18], in that order: 100 to 1000 nM and greater than 10000 nM.
For `C=C[C@@H]1C[C@]1(NC(=O)[C@@H]1C[C@@](O)(c2cccc(CN3CCOCC3)c2)CN1C(=O)[C@@H](NC(=O)OC(C)(C)C)C(C)(C)C)C(=O)NS(=O)(=O)C1CC1` [Compound 19], in that order: 100 to 1000 nM and greater than 10000 nM.

For the origin of these results see patent US7592336B2, “Hepatitis C virus inhibitors” (Bristol-Myers Squibb Company, priority 2005, dated 2009).
